This assay deals with LRRK2 (leucine-rich repeat kinase 2) (Homo sapiens (Human), UniProt Q5S007). As to the kind of experiment: Inhibitory effect on LRRK2 in vitro (LANCE kinase assay). It is filed as biochemical. How it is done: The inhibitory effect of Compounds 1 to 62 on LRRK2 (leucine-rich repeat kinase 2) in vitro was measured. In the analysis of the results, IC50 values were calculated for a quantitative comparison of the in vitro activity.
After the compound was dissolved in 100% DMSO at 10 mM, it was serially diluted to the range of 1 μM to 10 μM using biochemical LRRK2 assay buffer (50 mM HEPES (4-(2-hydroxyethyl)-1-piperazineethanesulfonic acid) pH 7.5, 10 mM MgCl2, 1 mM EGTA (1,2-bis(o-aminophenoxy)ethane-N,N,N′,N′-tetraacetic acid), 2 mM DTT (dithiothreitol), and 0.01% TWEEN-20 (Aldrich)). Purified LRRK2 (CARNA BIOSCIENCES) was added to a black U-bottom 96-well microtiter plate containing 6 μl of the serially diluted compound, followed by incubation at room temperature for 30 minutes. For the kinase reaction, ATP and a substrate solution specific urea-polypeptide (ULIGHT™-poly TK, PerkinElimer) were added. The reaction was carried out at room temperature for 1 hour, and it was detected with an detection solution (brand name: LANCE™) containing EDTA. A LANCE detection solution containing europium-labeled antibody ([…] PT66) was added, followed by incubation at room temperature for 50 minutes, to terminate the kinase experiment. The phosphorylated substrate was detected by 665 nm emission measurement. IC50 values were calculated by a non-linear regression analysis using a Prism program (PRISM™ software) with reference to the absence of a kinase inhibitor.
As a comparative assay, a compound LRR2-IN-1, that known to be a reference compound for LRRK2 inhibitor, have also tested an inhibitory activity.

[1] abbreviates: Table 1, class symbols, read-out: LRRK2 inhibition rate (IC50).
The mark [2] stands for this setting: purified LRRK2, Table 6, read-out: IC50.

Here are results for eleven compounds from US11370796B2, “Substituted pyrazoles as LRRK2 inhibitors” (OSCOTEC INC., priority 2017, dated 2022).

Like-named read-outs stand apart in the source and are kept apart here.

Chain of LRRK2 (leucine-rich repeat kinase 2) (Q5S007 whole entry): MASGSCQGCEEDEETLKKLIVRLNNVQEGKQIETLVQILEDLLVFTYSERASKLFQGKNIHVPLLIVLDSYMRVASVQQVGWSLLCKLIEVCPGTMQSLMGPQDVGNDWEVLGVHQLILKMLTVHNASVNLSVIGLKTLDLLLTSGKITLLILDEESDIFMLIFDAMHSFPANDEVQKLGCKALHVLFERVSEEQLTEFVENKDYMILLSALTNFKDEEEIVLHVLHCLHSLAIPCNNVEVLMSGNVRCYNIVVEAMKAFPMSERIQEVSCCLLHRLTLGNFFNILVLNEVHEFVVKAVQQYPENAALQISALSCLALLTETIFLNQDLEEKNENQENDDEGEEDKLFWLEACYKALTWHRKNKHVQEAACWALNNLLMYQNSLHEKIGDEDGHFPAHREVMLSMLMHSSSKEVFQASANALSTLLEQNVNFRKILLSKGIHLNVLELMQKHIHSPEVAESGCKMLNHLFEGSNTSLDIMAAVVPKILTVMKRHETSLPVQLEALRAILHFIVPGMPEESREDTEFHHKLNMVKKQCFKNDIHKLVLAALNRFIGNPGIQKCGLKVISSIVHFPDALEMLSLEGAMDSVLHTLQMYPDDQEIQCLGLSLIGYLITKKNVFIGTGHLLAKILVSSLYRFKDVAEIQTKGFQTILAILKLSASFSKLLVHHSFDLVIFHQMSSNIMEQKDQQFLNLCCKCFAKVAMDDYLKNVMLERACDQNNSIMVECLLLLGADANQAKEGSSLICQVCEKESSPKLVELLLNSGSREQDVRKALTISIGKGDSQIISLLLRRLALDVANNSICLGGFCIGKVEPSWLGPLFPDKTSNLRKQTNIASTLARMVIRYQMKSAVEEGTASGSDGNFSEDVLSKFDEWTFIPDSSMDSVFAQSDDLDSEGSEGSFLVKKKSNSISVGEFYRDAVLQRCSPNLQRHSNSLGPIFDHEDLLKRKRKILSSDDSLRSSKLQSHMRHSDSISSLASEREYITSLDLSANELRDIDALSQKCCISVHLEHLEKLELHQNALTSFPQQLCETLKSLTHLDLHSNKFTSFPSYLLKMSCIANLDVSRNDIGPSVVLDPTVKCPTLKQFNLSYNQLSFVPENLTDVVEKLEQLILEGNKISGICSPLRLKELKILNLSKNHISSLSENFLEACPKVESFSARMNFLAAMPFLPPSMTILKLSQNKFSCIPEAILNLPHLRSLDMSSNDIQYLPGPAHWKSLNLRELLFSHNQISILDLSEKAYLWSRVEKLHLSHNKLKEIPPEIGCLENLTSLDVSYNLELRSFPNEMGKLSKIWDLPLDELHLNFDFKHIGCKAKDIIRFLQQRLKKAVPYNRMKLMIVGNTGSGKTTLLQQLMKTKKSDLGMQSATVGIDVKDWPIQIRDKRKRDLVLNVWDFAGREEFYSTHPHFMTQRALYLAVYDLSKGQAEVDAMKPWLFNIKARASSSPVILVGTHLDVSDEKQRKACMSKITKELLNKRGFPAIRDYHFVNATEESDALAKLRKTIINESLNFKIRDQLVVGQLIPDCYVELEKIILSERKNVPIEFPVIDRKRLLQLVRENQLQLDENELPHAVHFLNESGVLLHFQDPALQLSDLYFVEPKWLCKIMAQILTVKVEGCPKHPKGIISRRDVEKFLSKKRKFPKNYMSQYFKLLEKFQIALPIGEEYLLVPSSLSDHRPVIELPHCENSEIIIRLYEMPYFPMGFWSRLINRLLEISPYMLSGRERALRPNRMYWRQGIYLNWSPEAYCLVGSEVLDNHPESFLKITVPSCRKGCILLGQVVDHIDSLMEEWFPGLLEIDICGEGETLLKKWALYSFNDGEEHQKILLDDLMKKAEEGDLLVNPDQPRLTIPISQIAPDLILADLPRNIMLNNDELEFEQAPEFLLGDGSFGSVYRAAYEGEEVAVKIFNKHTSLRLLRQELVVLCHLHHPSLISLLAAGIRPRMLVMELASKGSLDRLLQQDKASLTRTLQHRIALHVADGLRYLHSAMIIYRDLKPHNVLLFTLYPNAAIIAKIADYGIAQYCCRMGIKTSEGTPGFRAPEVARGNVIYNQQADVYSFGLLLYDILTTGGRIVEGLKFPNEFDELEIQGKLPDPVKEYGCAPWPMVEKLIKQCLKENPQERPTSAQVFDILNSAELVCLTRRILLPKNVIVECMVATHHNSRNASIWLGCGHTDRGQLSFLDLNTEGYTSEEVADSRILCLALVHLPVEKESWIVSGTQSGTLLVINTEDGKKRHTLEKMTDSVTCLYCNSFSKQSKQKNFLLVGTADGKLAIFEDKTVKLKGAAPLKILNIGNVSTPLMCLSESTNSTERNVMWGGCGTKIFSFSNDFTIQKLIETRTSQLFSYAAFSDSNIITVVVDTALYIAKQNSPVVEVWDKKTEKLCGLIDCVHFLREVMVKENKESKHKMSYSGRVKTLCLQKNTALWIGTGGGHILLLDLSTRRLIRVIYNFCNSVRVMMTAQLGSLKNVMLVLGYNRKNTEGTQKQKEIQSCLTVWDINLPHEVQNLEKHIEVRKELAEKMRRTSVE

On to `CCn1nc(Cl)c2cnc(Nc3cn(C4CCN(C(=O)C(C)(C)C)CC4)nc3Cl)nc21` [Compound 53, 1-(4-(3-chloro-4-(3-chloro-1-ethyl-1H-pyrazolo[3,4-d]pyrimidin-6-ylamino)-1H-pyrazol-1-yl)piperidin-1-yl)-2,2-dimethylpropane-1-one], for which the IC50 under setting [1] is below 10 nM.
Same read-out and setting: with `CCn1nc(Cl)c2cnc(Nc3cn(C4CCN(C(=O)N5CCOCC5)CC4)nc3Cl)nc21` [Compound 54, (4-(3-chloro-4-(3-chloro-1-ethyl-1H-pyrazolo[3,4-d]pyrimidin-6-ylamino)-1H-pyrazol-1-yl)piperidin-1-yl)(morpholino)methanone] the figure was below 10 nM.
Turning to `CCn1nc(Cl)c2cnc(Nc3cn(C4CCN(S(C)(=O)=O)CC4)nc3Cl)nc21` [Compound 55, 3-chloro-N-(3-chloro-1-(1-(methylsulfonyl)piperidin-4-yl)-1H-pyrazol-4-yl)-1-ethyl-1H-pyrazolo[3,4-d]pyrimidin-6-amine], the IC50 by setting is: under setting [1], below 10 nM; under setting [2], 4.49 nM.
Take `CCn1nc(Cl)c2cnc(Nc3c(Cl)nn(C4CCN(C(=O)C5CC5)CC4)c3C)nc21` [Compound 56, (4-(3-chloro-4-(3-chloro-1-ethyl-1H-pyrazolo[3,4-d]pyrimidin-6-ylamino)-5-methyl-1H-pyrazol-1-yl)piperidin-1-yl)(cyclopropyl)methanone]: the half-maximal inhibitory concentration (IC50) under setting [1] was 100 to 1000 nM.
`CCn1nc(Cl)c2cnc(Nc3cn(C4CCN(C(=O)C5CC5)CC4)nc3Cl)nc21` [Compound 57, (4-(3-chloro-4-(3-chloro-1-ethyl-1H-pyrazolo[3,4-d]pyrimidin-6-ylamino)-1H-pyrazol-1-yl)piperidin-1-yl)(cyclopropyl)methanone]: the 50% inhibitory concentration (IC50) is, setting by setting: under setting [1], below 10 nM; under setting [2], 7.22 nM.
For `CCn1nc(Cl)c2cnc(Nc3cn(C4CCN(C(C)=O)CC4)nc3Cl)nc21` [Compound 58, 1-(4-(3-chloro-4-(3-chloro-1-ethyl-1H-pyrazolo[3,4-d]pyrimidin-6-ylamino)-1H-pyrazol-1-yl)piperidin-1-yl)ethanone] the same measures were below 10 nM and 5.92 nM.
For the compound `CCn1nc(Cl)c2cnc(Nc3cn(C4CCN(S(=O)(=O)CC)CC4)nc3Cl)nc21` [Compound 59, 3-chloro-N-(3-chloro-1-(1-(ethylsulfonyl)piperidin-4-yl)-1H-pyrazol-4-yl)-1-ethyl-1H-pyrazolo[3,4-d]pyrimidin-6-amine], the IC50 is, setting by setting: under setting [1], below 10 nM; under setting [2], 3.94 nM.
For the compound `CCn1nc(Cl)c2cnc(Nc3cn(C4CN(C(=O)C5CC5)C4)nc3Cl)nc21` [Compound 60, (3-(3-chloro-4-(3-chloro-1-ethyl-1H-pyrazolo[3,4-d]pyrimidin-6-ylamino)-1H-pyrazol-1-yl)azetidin-1-yl)(cyclopropyl)methanone], the IC50 under setting [1] was 10 to 100 nM.
Still for that read-out and setting: as for `CCn1nc(Cl)c2cnc(Nc3cnn(C4CN(C5COC5)C4)c3Cl)nc21` [Compound 61, 3-chloro-N-(5-chloro-1-(1-(oxetan-3-yl)azetidin-3-yl)-1H-pyrazol-4-yl)-1-ethyl-1H-pyrazolo[3,4-d]pyrimidin-6-amine], the figure is 10 to 100 nM.
Still for that read-out and setting: with `CCn1nc(Cl)c2cnc(Nc3cnn(C4CCN(S(C)(=O)=O)CC4)c3Cl)nc21` [Compound 62, 3-chloro-N-(5-chloro-1-(1-(methylsulfonyl)piperidin-4-yl)-1H-pyrazol-4-yl)-1-ethyl-1H-pyrazolo[3,4-d]pyrimidin-6-amine] the figure was 10 to 100 nM.
Consider `COc1cc(C(=O)N2CCC(N3CCN(C)CC3)CC2)ccc1Nc1ncc2c(n1)N(C)c1ccccc1C(=O)N2C` [LRRK2-IN-1, reference compound], for which the IC50 under setting [2] worked out at 8.2 nM.
